According to PMC11748620, “Evaluation of maSSS/maSES-PEG2-RM26 for their potential therapeutic use after labeling with Re-188. Could their [^99mTc]Tc-labeled counterparts be used to estimate dosimetry?” (EJNMMI Radiopharmacy and Chemistry, 2025):

Test system: PC-3 xenografts
Assay: Ex vivo biodistribution in PC-3 xenograft bearing mice
Design: species or system BALB/C nu/nu mice
Details: mice bearing PC-3 xenografts, 4 h pi
Excerpt: Animal studies were in compliance with the European guidelines for laboratory animal protection. BALB/C nu/nu mice were used and the experimental protocols were approved by the ethics committee for animal research in Uppsala (Sweden); permit number 00473/21.
The biodistribution profiles and tumor targeting of maSSS-/SES-PEG2-RM26, labeled with Re-188 or Tc-99 m, were compared head-to-head in the same batch of animals, inoculated with the same PC-3 cells-suspension. After acclimatization, animals were inoculated subcutaneously (right hind leg) with 7 × 10^6 freshly harvested PC-3 cells per animal, in PBS. After approximately four weeks solid tumors were present at the inoculation sites and the animals were randomly divided in groups of four.
For the ex vivo biodistribution experiments animals were injected via the tail vein with 50 pmol (120 kBq for Re-188 and 60 kBq for Tc-99 m) of the radiopeptide under evaluation, in 100 µl solution in PBS supplemented with 1% w/v BSA. Animals were euthanized at 1 h and 4 h post injection (pi) and tissues / organs of interest and tumors were collected, weighted and their radioactivity content was measured on a gamma counter. Each group comprised by four animals (n = 4).
Statistical analysis was performed using GraphPad Prism, employing a two-way ANOVA test with Tuckey’s posthoc analysis.

SMILES	ratio of activity uptake in caecum, Re-188 over Tc-99 m
CC(C)C[C@H](NC(=O)C[C@H](O)[C@H](CC(C)C)NC(=O)[C@H](Cc1c[nH]cn1)NC(=O)CNC(=O)[C@@H](NC(=O)[C@H](C)NC(=O)[C@H](Cc1c[nH]c2ccccc12)NC(=O)[C@H](CCC(N)=O)NC(=O)[C@@H](Cc1ccccc1)NC(=O)COCCOCCNC(=O)[C@H](CO)NC(=O)[C@H](CCC(=O)O)NC(=O)[C@H](CO)NC(=O)CS)C(C)C)C(N)=O [maSES-PEG2-RM26, mercaptoacetyl-Ser-Glu-Ser-PEG2-RM26]	2.3 fold
CC(C)C[C@H](NC(=O)C[C@H](O)[C@H](CC(C)C)NC(=O)[C@H](Cc1c[nH]cn1)NC(=O)CNC(=O)[C@@H](NC(=O)[C@H](C)NC(=O)[C@H](Cc1c[nH]c2ccccc12)NC(=O)[C@H](CCC(N)=O)NC(=O)[C@@H](Cc1ccccc1)NC(=O)COCCOCCNC(=O)[C@H](CO)NC(=O)[C@H](CO)NC(=O)[C@H](CO)NC(=O)CS)C(C)C)C(N)=O [maSSS-PEG2-RM26, mercaptoacetyl-Ser-Ser-Ser-PEG2-RM26]	1.4 fold
